# According to US20180271110A1, “REDUCTION OF MICROBIAL ACTIVITY AND METHOD OF PROCESSING ANIMAL AND POULTRY PRODUCTS” (Zee Company, priority 2017, published 2018):
# Where two headings read alike, the source gives them in different places.
# Key:
# [1] = tested on: Salmonella Enterica serovar enteriditis (SE); test: Antimicrobial efficacy of DCDMH vs DBDMH on Salmonella-contaminated chicken legs and beef cubes (15 s agitation in solution); type: cell-based; details: for log Reduction Ave.: 15 s agitation, 15 s drip
# Experimental: In the following working example, a study was conducted to compare the antimicrobial efficacy of 1,3,-dichloro-5,5,-dimethylhydantoin (DCDMH) and 1,3,-dibromo-5,5,-dimethylhydantoin (DBDMH) at 200 ppm available chlorine on both chicken and beef test substrates. For sample preparation, chicken legs and beef cubes obtained from a local grocery store were used to conduct the following tests. Prior to exposure of the test substrates to the antimicrobial solutions having DCDMH or DBDMH, the test substrates were exposed for two hours in 300 mL of broth of Salmonella Enterica serovar enteriditis (SE), which had been grown to a concentration of >6 log 10 in Nutrient Broth for 2 h at 35° C. Following exposure, the test substrates were removed from the Nutrient Broth and allowed to drain and air dry for about 30 minutes at ambient room temperature before testing began.
# 1. The following solutions were prepared and distributed in 200 mL aliquots into Ziploc bags:
# a. 200 ppm available chlorine solutions derived from DCDMH distributed it into an appropriate number of Ziploc bags;
# b. FSIS new buffer solution containing Lecithin and Sodium thiosulfate (LST) into an appropriate number of Ziploc bags;
# c. Phosphate Buffer Solution (PBS) into an appropriate number of Ziploc bags.
# 2. Into each bag of DCDMH solution, a Salmonella-contaminated test substrate was placed and agitated manually for 15 s. The test substrate was removed from the bag, allowed to drip for 15 s, then placed into a Ziploc bag containing 200 mL LST. The bag was then vigorously shaken for 45 s to neutralize the DCDMH and to release SE from the surface of the chicken leg.
# 3. After the bags were shaken, 100 μL from each of the shaken bags was removed and dispensed into test tubes containing 9.9 mL of DI HOH. The contents of these tubes were used for serial dilution.
# 4. As controls, a prepared test substrate was inserted into each of two bags of PBS and agitated manually for 15 s. The substrate was removed from the bag and placed directly into a Ziploc bag containing 200 mL LST. The bag was vigorously shaken for 45 s to release SE from the surface of the substrate.
# 5. Repeat Step 3 with the control solutions.
# 6. Serially dilute the contents of the test tubes from Step 3 above. Plate 100 μL aliquots on Salmonella-Shigella Agar (SSA), then incubate for 18-24 h at 35° C. Enumerate colonies that have black centers (presumptive SE) after incubation.
# 7. Repeat the entire protocol replacing the DCDMH solution with […] solution in Step 1.a.
# [2] = tested on: Salmonella Enterica serovar enteriditis (SE)
# Experimental: In the following working example, a study was conducted to compare the antimicrobial efficacy of 1,3,-dichloro-5,5,-dimethylhydantoin (DCDMH) at various concentrations (100 ppm, 200 ppm, and 400 ppm) on beef test substrates from beef brisket and beef liver. For sample preparation, beef brisket and beef liver were cubed to have approximately […] of exposed surface. Prior to exposure of the test substrates to the antimicrobial solutions having DCDMH, the test substrates were incubated for two hours in 300 mL of broth of Salmonella Enterica serovar enteriditis (SE), which had been grown to a concentration of >6 log 10 in Nutrient Broth for 2 h at 35° C. Following exposure, the test substrates were removed from the Nutrient Broth and allowed to drain and air dry for about 30 minutes at ambient room temperature before testing began. The test was replicated 10 times for each concentration and two controls. The concentration of DCDMH was then tested on the exposed test substrates using spray and dip applications.
# 1. A test substrate cube was suspended on a stainless steel hook and the antimicrobial solution was atomized onto the cube to thoroughly cover all sides until solution was dripping from the test substrate cube, which was for about 5 to about 10 seconds;
# 2. The test substrate cube was allowed to drip for about 10 to about 50 seconds (to obtain total antimicrobial contact times of about 15 to about 60 seconds when combined with the exposure in step 1 above).
# 3. The test substrate cube was then placed in a Ziploc bag containing 100 mL of LST solution to neutralize any residual antimicrobial chemistry;
# (§1) 4. The Ziploc bag containing the test substrate cube was then vigorously shaken for about for 45 seconds to release bacterial cells from the surface of the meat into the LST solution;
# (§2) 5. A 100 μL aliquot of LST solution from the bag was injected into 9.9 mL of sterile phosphate buffer solution;
# (§3) 6. The LST solution was serially diluted, then plated on Salmonella Shigella agar and incubated for 24 h prior to counting presumptive positive Salmonella colonies;
# (§4) 7. This procedure was repeated at each concentration of DCDMH;
# 8. For controls, 2 cubes of each test substrate were treated as in steps 1-2 above, except the control substrate cubes were atomized with sterile deionized water in step 1 above. And then steps 2-6 of the process above were continued.
# 1. A test substrate cube was placed in a Ziploc bag containing 100 mL of the antimicrobial solution and allowed to remain in the solution for about 15 to about 30 seconds under gentle manual agitation;
# 2. The test substrate cube was removed from the test solution using sterile forceps and allowed to drip for about 0 to about 30 seconds (to obtain total antimicrobial contact times of about 15 to about 60 seconds when combined with the exposure in step 1 above);
# 8. For controls, 2 cubes of each test substrate were treated as in steps 1-2 above, except the control substrate cubes were placed in 100 mL Ziploc bags of phosphate buffer solution in step 1 above. And then steps 2-6 of the process above were continued.
# [3] = tested on: Salmonella Enterica serovar enteriditis (SE); remark: listed apart in the source
# Experimental: In the following working example, a study was conducted to compare the antimicrobial efficacy of 1,3,-dichloro-5,5,-dimethylhydantoin (DCDMH) at various concentrations (50 ppm, 100 ppm, and 200 ppm) on chicken test substrates, namely, chicken legs and chicken liver. Prior to exposure of the test substrates to the antimicrobial solutions having DCDMH, the test substrates were incubated for two hours in 1000 mL of broth of Salmonella Enterica serovar enteriditis (SE), which had been grown to a concentration of >6 log 10 in Nutrient Broth for 2 h at 35° C. Following exposure, the test substrates were removed from the Nutrient Broth and allowed to drain and air dry for about 30 minutes at ambient room temperature before testing began. The test was replicated 10 times for each concentration and two controls. The concentration of DCDMH was then tested on the exposed test substrates using spray and dip applications.
# 1. A test poultry product (e.g., chicken leg or chicken liver) was suspended on a stainless steel hook in a spray cabinet and sprayed until the part was drenched with antimicrobial solution, which was for about 5 to about 10 seconds;
# 2. The test poultry product was allowed to drip for about 10 to about 50 seconds (to obtain total antimicrobial contact times of about 15 to about 60 seconds when combined with the exposure in step 1 above);
# 3. The test poultry product was then placed in a Ziploc bag containing 200 mL of LST solution to neutralize any residual antimicrobial chemistry;
# 4. The Ziploc bag containing the test poultry product was then vigorously shaken for about for 45 seconds to release bacterial cells from the surface of the poultry product into the LST solution;
# as §2
# 6. The LST solution was serially diluted, then plated on Salmonella Shigella agar and incubated for 24-36 hours prior to counting presumptive positive Salmonella colonies;
# as §4
# 8. For controls, 2 poultry legs and 2 poultry livers for the corresponding test were treated as in steps 1-2 above, except the control poultry products were drenched with sterile deionized water in step 1 above. And then steps 2-6 of the process above were continued.
# 1. A test poultry product was placed in a Ziploc bag containing 200 mL of the antimicrobial solution and allowed to remain in the solution for about 15 to about 30 seconds under gentle manual agitation;
# 2. The test poultry product was removed from the test solution using sterile forceps and allowed to drip for about 0 to about 30 seconds (to obtain total antimicrobial contact times of about 15 to about 60 seconds when combined with the exposure in step 1 above);
# 3. The test poultry product was then placed in a Ziploc bag containing 200 mL broth of LST solution to neutralize any residual antimicrobial chemistry;
# as §1, §3
# 8. For controls, 2 poultry legs and 2 poultry liver for each test were treated as in steps 1-2 above, except the test substrate cubes were placed in 200 mL Ziploc bags of phosphate buffer solution in step 1 above. And then steps 2-6 of the process above were continued.
# [4] = beef test substrate, 200 ppm available chlorine
# [5] = chicken test substrate, 200 ppm available chlorine
Compound,"log Reduction Ave. [1, 4]","log Reduction Ave. [1, 5]","Ave. Log Reduction ([2]; Beef Liver, Active Cl 100 ppm, Dip, 60 seconds)","Ave. Log Reduction ([2]; Beef Liver, Active Cl 200 ppm, Spray, 30 seconds)","Ave. Log Reduction ([2]; Beef Liver, Active Cl 400 ppm, Dip, 15 seconds)","Ave. Log Reduction ([2]; Beef Muscle, Active Cl 100 ppm, Dip, 60 seconds)","Ave. Log Reduction ([2]; Beef Muscle, Active Cl 200 ppm, Spray, 30 seconds)","Ave. Log Reduction ([2]; Beef Muscle, Active Cl 400 ppm, Dip, 15 seconds)","antimicrobial efficacy against S. Enteritidis ([2]; about 100 ppm to about 400 ppm, dip or spray application, beef substrates)","anticipated efficacy (log reduction) under normal in-plant use conditions ([2]; normal in-plant use conditions, about 100 to about 400 ppm, dip or spray, anticipated)","Ave. Log Reduction ([3]; Chicken Leg, Active Cl 50 ppm, Dip, 60 seconds)","Ave. Log Reduction ([3]; Chicken Leg, Active Cl 100 ppm, Spray, 30 seconds)","Ave. Log Reduction ([3]; Chicken Leg, Active Cl 200 ppm, Dip, 15 seconds)","Ave. Log Reduction ([3]; Chicken Liver, Active Cl 50 ppm, Dip, 60 seconds)","Ave. Log Reduction ([3]; Chicken Liver, Active Cl 100 ppm, Spray, 30 seconds)","Ave. Log Reduction ([3]; Chicken Liver, Active Cl 200 ppm, Dip, 15 seconds)","antimicrobial efficacy against S. Enteritidis ([3]; about 50 ppm to about 200 ppm, dip or spray application, poultry products)","anticipated efficacy (log reduction) under normal in-plant use conditions ([3]; normal in-plant use conditions, about 50 to about 200 ppm, dip or spray, anticipated)","antimicrobial efficacy against S. Enteritidis compared with DBDMH ([1]; 200 ppm available chlorine, chicken and beef, short contact time)","anticipated efficacy (log reduction) under normal in-plant use conditions ([1]; normal in-plant use conditions, anticipated)"
"CC1(C)C(=O)N(Br)C(=O)N1Br [DBDMH, 1,3,-dibromo-5,5,-dimethylhydantoin, reference compound]",0.15 log,0.29 log,,,,,,,,,,,,,,,,,,
"CC1(C)C(=O)N(Cl)C(=O)N1Cl [DCDMH, 1,3,-dichloro-5,5,-dimethylhydantoin]",0.51 log,0.64 log,0.90 log,1.01 log,1.11 log,0.89 log,0.91 log,1.18 log,great antimicrobial efficacy,> 1 log,0.78 log,0.86 log,1.22 log,0.69 log,0.72 log,1.07 log,great antimicrobial efficacy,> 1 log,substantially greater antimicrobial efficacy,> 1 log
